In the NIST ThermoML archive (doi:10.1021/je500363r):
± gives the expanded uncertainty stated by the source.

Experiments:
[1] = Molar enthalpy of transition or fusion; conditions: Crystal; DSC
[2] = Crystal; DTA

| SMILES | Molar enthalpy of transition or fusion [1] [kcal/mol] | Normal melting temperature [2] [°C] |
| --- | --- | --- |
| Br.c1ccc(NC2=NCCC3(CCCCC3)[Se]2)cc1 | 4.3 ± 0.263 | 144.8 ± 0.5 |
| Br.CC(C)c1ccc(NC2=NCCC3(CCCCC3)[Se]2)cc1 | 3.08 ± 0.239 | 148.4 ± 0.5 |
| Br.Fc1ccc(NC2=NCCC3(CCCCC3)[Se]2)cc1 | 6 ± 0.263 | 196.2 ± 0.5 |
